According to PMC8533752, “Characterization of Microtubule Destabilizing Drugs: A Quantitative Cell-Based Assay That Bridges the Gap between Tubulin Based- and Cytotoxicity Assays” (Cancers, 2021):

Experiments:
HeLa cells = assay: Cell viability, PrestoBlue assay, HeLa; type: cell-based; conditions: Homo sapiens, 48 h, mean ± SEM, read-out: GI50 (concentration causing 50% cell growth inhibition)
Description: (§1) Cell viability was analyzed using the colorimetric PrestoBlue assay (Gibco Invitrogen, #A13262, Carlsbad, CA, USA). Cells were seeded in 96-well microplates (#655077, Greiner, Courtaboeuf, France) at density of 2500 cells per well and allowed to adhere for 24 h before being treated for 48 h with the drugs at indicated concentrations or corresponding concentrations of DMSO as controls, in a final volume of 90 µL. After 48 h of treatment, 10 µL PrestoBlue was added to each well and cells were incubated for another 45 min. The absorbance of each well was measured using a FLUOstar microplate reader (Excitation: 544 nm; Emission: 580 nm, BMG Lab technology, Champagny/Marne, France).

RPE-1 cells = assay: Cell viability, PrestoBlue assay, RPE-1; type: cell-based; conditions: Homo sapiens, 48 h, mean ± SEM, read-out: GI50 (concentration causing 50% cell growth inhibition)
Description: as §1

HeLa cells microtubules = assay: Immunofluorescence analysis of HeLa cells microtubules; type: cell-based, Human; conditions: 50 nM, 30 min
Description: (§2) Cells at a density of 20,000 cells per well were grown for 48 h on glass coverslips placed in a 24-well microplate. When cells reached 70% confluence, the medium was replaced with a fresh one supplemented with DMSO (0.005% or 0.01%) or the test compound at 50 nM or 1000 nM. After 30 min of incubation, cells were permeabilized in warm OPT buffer (80 mmol/L Pipes, […], 0.5% Triton X-100 and 10% Glycerol, pH 6.8) and fixed for 6 min in −20 °C methanol (Carlo ERBA SAS, #414855, Val-de-Reuil, France). After washing and saturation with a specific blocking buffer (3% BSA), 10% Goat serum (Gibco Invitrogen, #16210064, Carlsbad, CA, USA) in PBS), cells were incubated for 45 min at room temperature (RT) with anti-alpha-tubulin antibody (clone α3A1 [40] in blocking buffer). Cells were washed twice again and subsequently incubated with Alexa 488 conjugated anti-mouse antibody (1:500 in blocking buffer, #115-545-166, Jackson immune-research laboratory, Cambridgeshire, UK) and DNA was stained with Hoechst 33342 (1:10,000 in blocking buffer) for 30 min at RT. Coverslips were mounted on glass slides with Moviol 4–88.
(§3) Images were captured with a Zeiss AxioimagerM2 microscope equipped with the acquisition software AxioVision (Marly-le-Roi, France).

porcine tubulin = porcine tubulin (Sus scrofa, UniProt P02550+P02554); assay: biochemical
Sequence of porcine tubulin (P02554 whole entry): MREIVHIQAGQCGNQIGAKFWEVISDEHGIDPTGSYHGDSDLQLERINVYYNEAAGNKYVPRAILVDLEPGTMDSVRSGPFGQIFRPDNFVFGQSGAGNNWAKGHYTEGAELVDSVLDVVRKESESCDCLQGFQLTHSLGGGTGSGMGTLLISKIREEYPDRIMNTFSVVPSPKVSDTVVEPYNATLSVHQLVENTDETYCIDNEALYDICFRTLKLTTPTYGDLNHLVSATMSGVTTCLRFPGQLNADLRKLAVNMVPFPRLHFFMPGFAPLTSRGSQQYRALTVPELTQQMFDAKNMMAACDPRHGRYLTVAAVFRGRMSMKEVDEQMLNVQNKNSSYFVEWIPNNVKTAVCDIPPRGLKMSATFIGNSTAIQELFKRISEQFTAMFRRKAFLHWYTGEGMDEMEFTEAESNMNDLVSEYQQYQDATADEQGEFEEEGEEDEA
Sequence of porcine tubulin (P02550 whole entry): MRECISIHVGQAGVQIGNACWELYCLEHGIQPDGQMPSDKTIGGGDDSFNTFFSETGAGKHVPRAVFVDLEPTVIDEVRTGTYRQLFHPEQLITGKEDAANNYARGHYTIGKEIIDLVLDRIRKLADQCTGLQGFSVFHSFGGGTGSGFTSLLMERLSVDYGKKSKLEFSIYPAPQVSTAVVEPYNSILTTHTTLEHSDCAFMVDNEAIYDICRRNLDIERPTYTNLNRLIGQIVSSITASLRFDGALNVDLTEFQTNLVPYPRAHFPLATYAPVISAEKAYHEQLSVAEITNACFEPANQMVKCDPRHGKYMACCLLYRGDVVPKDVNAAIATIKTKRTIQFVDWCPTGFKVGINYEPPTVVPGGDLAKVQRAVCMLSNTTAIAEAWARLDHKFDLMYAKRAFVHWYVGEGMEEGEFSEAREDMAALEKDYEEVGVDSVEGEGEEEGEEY
Description: Tubulin polymerization kit ((#BK004) was purchased from Cytoskeleton, Inc. (Denver, CO, USA). To study the effect of the compounds on MT assembly, the absorbance-based in vitro tubulin polymerization assay was performed following the manufacturer’s protocol. The reaction mixture containing porcine tubulin (40 µM) in G-PEM buffer (80 mM PIPES pH 6.9, 2.0 mM MgCl2, 0.5 mM EGTA, and 5% glycerol) supplemented with 1.0 mM GTP, in the presence of DMSO (0.18%) or the compound to be tested, was prepared and added to each well of a 96-well plate (half area, #675096, Greiner Bio One, Courtaboeuf, France). Tubulin polymerization was monitored by the increase in absorbance over time, measured by a CLARIOstar^plus Microplate reader from BMG Lab technology (Champagny-sur-Marne, France).

[1] = system: cellular microtubules in HeLa cells; assay: Quantitative immunoluminescent assay of the cellular microtubule content; type: cell-based; conditions: Homo sapiens, 0.5 h, 30 min incubation, mean ± SEM, read-out: IC50, drug concentration able to reduce the amount of cellular microtubules by half
Description: 7500 HeLa cells were seeded in 96-well microplates (#655086, Greiner bio One, Courtaboeuf, France) in 100 µL of complete medium per well and then incubated at 37 °C in 5% CO2 for 24 h. Cells were then treated for 30 min at 37 °C with the compounds at concentrations ranging from 1 to 5000 nM (1 microplate per molecule, 1 concentration per column), with 0.1% DMSO used as […] control (6 wells per microplate). After medium aspiration, treated cells were permeabilized for 10 min using 100 µL per well of warmed (37 °C) OPT buffer (80 mM Pipes, 1 mM EGTA, 1 mM MgCl2, 0.5% Triton X-100, and 10% glycerol, pH 6.8). Cells were fixed overnight at room temperature using 100 µL per well of 4% formaldehyde (Sigma Aldrich, #252549, Saint-Quentin-Fallavier, France) in PBS. Cells were washed 3 times in PBS, 0.1% Tween-20 (100 µL per well), then primary anti-alpha-tubulin antibody (clone α3A1 [40], 1:5000 in PBS 2% Bovine Serum Albumin (BSA)) was added for 45 min. Cells were washed twice again and secondary anti-mouse antibody coupled to HRP (1:2000 in PBS 2% BSA, #715-035-150, Jackson Immuno-Research Laboratories, Cambridgeshire, UK) was added for 45 min. Then, cells were washed again with PBS and 100 µL of ECL substrate (#170-5061, Bio-Rad Laboratories inc., USA) were injected in each well using the FLUOstar OPTIMA Microplate Reader (BMG Lab technology, Champagny-sur-Marne, France). The luminescent signal was read immediately after ECL injection.

RPE1 cell microtubules = assay: Immunofluorescence analysis of RPE1 cell microtubules; type: cell-based, human; conditions: RPE1 cells, 50 nM, 30 min
Description: as §2, §3

tubulin = system: tubulin; parameters: method as in PMID 32781579; conditions: cited from earlier work
[2] = system: microtubular network of interphase cells; parameters: method as in PMID 32781579; conditions: cited from earlier work

| Structure (SMILES) | GI50 (HeLa cells) | GI50 (RPE-1 cells) | state of the MT network by immunofluorescence (HeLa cells microtubules) | IC50 (porcine tubulin) | concentration giving almost complete depolymerization / inhibition of tubulin assembly (porcine tubulin; tubulin 40 µM) | IC50 [1] | effect on cell microtubules by immunofluorescence (RPE1 cell microtubules) | effect on tubulin assembly kinetics (tubulin) | effect on the microtubular network of interphase cells [2] |
| --- | --- | --- | --- | --- | --- | --- | --- | --- | --- |
| COC(=O)Nc1nc2ccc(C(=O)c3cccs3)cc2[nH]1 [nocodazole] | 49.3 ± 2.6 nM | 81.7 ± 4.41 nM | a MT network is still present | ~5000 nM | ≥ 40 µM | 350 ± 76.4 nM |  |  |  |
| CC[C@]1(O)C[C@@H]2CN(CCc3c([nH]c4ccccc34)[C@@](C(=O)OC)(c3cc4c(cc3OC)N(C)[C@H]3[C@@](O)(C(=O)OC)[C@H](OC(C)=O)[C@]5(CC)C=CCN6CC[C@]43[C@@H]65)C2)C1 [vinblastine] | 0.73 ± 0.02 nM | 0.7 ± 0.77 nM | only few MTs remain | ~1000 nM |  | 4.83 ± 0.17 nM | depolymerized cell microtubules |  |  |
| Cc1cc(-n2cccc2)c(C)c2c1[nH]c1ccc(Cl)cc12 [Carba1] |  |  |  |  |  |  |  | visible depolymerizing effect | no detectable effect |
| COc1ccc(/C=C\c2cc(OC)c(OC)c(OC)c2)cc1O [C-A4, combretastatin-A4] | 0.93 ± 0.07 nM | 4.16 ± 1.42 nM | only few MTs remain |  |  | 4.5 ± 0.76 nM | depolymerized cell microtubules |  |  |
| COc1cc2c(c(OC)c1OC)-c1ccc(OC)c(=O)cc1[C@@H](NC(C)=O)CC2 [colchicine] |  |  | a MT network is still present |  |  |  |  |  |  |
